# Test results from patent publication US7258999B2, “PTH responsive gene” (Wyeth, priority 2002, dated 2007).
# How the values were obtained:
# [1] = system: Ovariectomized Rats with Established Osteopenia; assay: pQCT total and trabecular density (BMD) of proximal tibia in OVX rats; assay type: in vivo, rat; conditions: for ΔTotal Density / ΔTrabecular Density: 40 μg/kg sc, mean ± SEM
# Protocol: The total density of the proximal tibia was evaluated in anesthetized rats using peripheral quantitative computed tomography (pQCT) with XCT-960M (Stratec Medizintechnik, Pforzheim, Germany). The baseline and post-treatment measurements were performed in anesthetized rats as follows: The right hind limb was passed through a polycarbonate tube with a diameter of 25 mm and taped to an acrylic frame with the ankle joint at a 90° angle and the knee joint at 180°. The polycarbonate tube was affixed to a sliding platform that maintained it perpendicular to the aperture of the pQCT. The platform was adjusted so that the distal end of the femur and the proximal end of the tibia would be in the scanning field. A two dimensional scout view was run for a length of 10 mm and a line resolution of 0.2 mm. […] The pQCT scan was initiated 3.4 mm distal from this point. […] A region of interest including the tibia but excluding the fibula was outlined. The soft tissue was automatically removed using an iterative algorithm. The density of the remaining bone (Total density) was reported in mg/cm^3. The change in total density was calculated for each animal by subtracting post-treatment and baseline total density values.
# Female Wister rats 4 weeks of age were treated with vehicle (saline) and human PTH (1-34) at a dose of 40 μg/kg of body weight for eight days. Prior to PTH administration animals were ovariectomized (OVX). Three weeks post OVX total BMD was measured to determine if osteopenia was established. Subcutaneous injection of PTH once a day represented intermittent administration of PTH, while osmotic pump with release rate of 40 μg/kg/day implanted under the skin represented continuous way of PTH administration. On the eight day of treatment, 6 hours post treatment animals were scarified and samples were collected for further analysis. Each treatment group contained 8 animals.
# PTH (1-34) in a dose of 40 μg/kg was administered for eight days to the 3 weeks OVX rats in intermitted and continuous manner to induce anabolic and catabolic PTH effects respectively. As described in General Method section, intermittent administration of PTH was presented by once a day subcutaneous injection of PTH while continues administration was presented with osmotic pumps implanted under the skin with release rate of 40 μg/kg a day. Total bone mineral density was measured using pQCT. Intermittent PTH injection induced significant increases in total BMD, with Δ BMD of […] (FIG. 1). […] Thus, PTH exerts its effect on bone anabolic and catabolic (i.e., causing a decrease in BMD) depending of the way of its administration.
# In order to examine whether changes in PAIGB expression with intermittent PTH treatment correlates with effects of PTH on bone, samples from rats treated with PTH for 2, 4 and 8 days were subjected to BMD measurements for both total and trabecular bone (trabecular density of proximal tibia was measured). Two days PTH treatment increases expression of PAIGB. At the same time point significant increase in trabecular BMD (Δ trabecular density: 6.98+/−17.90 with PTH treatment vs −27.1+/−9.27 with vehicle treatment) was detected without any significant changes in total BMD (Δ total density: −9.15+/−2.94 PTH vs 0.69+/−4.10 vehicle) (Table 1).
# PAIGB expression = assay: Real time PCR of PAIGB in brain, kidney and heart after intermittent PTH; assay type: in vivo, rat; conditions: intermittent injection
# Excerpt: Applicants performed multiplex real time PCR (TaqMan) analysis on previously DNAsed samples using gene specific probe and primers and 18S ribosomal RNA probe and primer sets purchased from Applied Biosystem. (Foster City, Calif.) The samples were DNAsed according to the protocol provided by Ambion (DNA-free kit). TaqMan probe and primers for PAIGB was identify using Primer Express computer program. The sequence for rat PAIGB TaqMan probe was 6FAM-5′[…] (SEQ ID NO: 16) forward and reverse primers were 5′[…] 3′ (SEQ ID NO:17) and 5′ […] 3′ (SEQ ID NO:18) respectively. The final concentrations for probes were 500 nM and 40 nM for PAIGB and 18S ribosomal RNA or GAPDH respectively. The concentrations of the primers were 500 nM for PAIGB forward and reversed primers while 18S primers were 10 and 20 nM for forward and reversed primer respectively or 40 nM for GAPDH primers. Standards for rat samples were made from rat tibia or brain RNA in the range of 250 ng to 0.1 ng, while standards for mouse specific TaqMan were made from mouse brain RNA and human standards from human brain RNA (Clonetech, Palo Alto, Calif.) spanning the same range of concentration. Primers and probes for mouse PAIGB were: forward 5′ […] 3′ (SEQ ID NO:19), reverse, 5′ […] 3′ (SEQ ID NO:20) anti-sense and probe 5′ 6FAM-[…] (SEQ ID NO:21). Primers and probes for human PAIGB were: forward 5′ […] 3′ (SEQ ID NO:22), reverse 5′ […] […]
# [2] = four days treatment, listed as HPTH (1–34)
# [3] = four days treatment, listed as PTH
# [4] = two days treatment, listed as HPTH (1–34)
# [5] = two days treatment, listed as PTH
substance,measurement,setting,value
human PTH (1-34),change in total BMD,"[1]; continuous: osmotic pump 40 μg/kg a day, eight days, 3 weeks OVX rats",did not induce any changes
same,ΔTotal Density,[1]; [2],-10.56 ± 3.11 mg/mL
same,ΔTrabecular Density,[1]; [2],8.70 ± 9.98 mg/mL
same,ΔTotal Density,[1]; [3],10.56 ± 3.11 mg/mL
same,ΔTrabecular Density,[1]; [3],8.70 ± 9.98 mg/mL
same,Δ BMD (total BMD),"[1]; intermittent: 40 μg/kg once a day sc, eight days, 3 weeks OVX rats",80 mg/cm³
same,ΔTotal Density,[1]; [4],-9.15 ± 2.94 mg/mL
same,ΔTrabecular Density,[1]; [4],6.98 ± 17.90 mg/mL
same,ΔTotal Density,[1]; [5],-9.15 ± 2.94 mg/mL
same,ΔTrabecular Density,[1]; [5],6.98 ± 17.90 mg/mL
same,"changes in PAIGB expression in brain, kidney and heart",PAIGB expression,did not produce any changes
